Counter-ions that a name gives are not always drawn.
How the values were obtained:
Type in all cases: biochemical
Conditions in all cases: in vitro
noradrenaline reuptake = assay: noradrenaline (NUP) reuptake blockade
Description: (§1) Measurement of dopamine (DUP), serotonin (SUP) and noradrenaline NUP) reuptake blockade was carried out using the methods described in Neuropharmacology Vol. 27, No. 3, pp. 251-260, 1988 and results are presented in Table 1 below.

serotonin reuptake = assay: serotonin (SUP) reuptake blockade
Description: as §1

dopamine reuptake = assay: dopamine (DUP) reuptake blockade
Description: as §1

Structure (SMILES)	NUP (pKi) (noradrenaline reuptake)	SUP (pKi) (serotonin reuptake)	DUP (pKi) (dopamine reuptake)
Cl.Clc1ccc(C2CN3CCN=C3c3ccccc32)cc1 (racemic) [Example 2a, (rac)6-(4-chlorophenyl)-2,3,5,6-tetrahydroimidazo[2,1-a]isoquinoline hydrochloride]	7.9	7.4	7.15
Fc1ccc(C2CN3CCN=C3c3ccccc32)cc1 (racemic) [Example 2b, (rac)-6-(4-Fluorophenyl)-2,3,5,6-tetrahydroimidazo[2,1-a]isoquinoline]	7.65	7.5	6.5
Cc1ccc(C2CN3CCN=C3c3ccccc32)cc1 (racemic) [Example 2c, (rac)-2,3,5,6-Tetrahydro-6-(4-methylphenyl)imidazo[2,1-a]isoguinoline (Z)-2-butenedioate (1:1) salt]	7.75	6.9	7.05
Clc1ccc(C2CN3CCN=C3c3ccccc32)cc1 (single isomer, unassigned; (+)) [Example 4, (+)-6-(4-Chlorophenyl)-2,3,5,6-tetrahydroimidazo[2,1-a]isoquinoline (E)-2-butenedioate (1:1) salt]	8.15	7.0	7.2
Fc1ccc(C2CN3CCN=C3c3ccccc32)cc1 (single isomer, unassigned; (+)) [Example 7, (+)-6-(4-Fluorophenyl)-2,3,5,6-tetrahydroimidazo[2,1-a]isoquinoline (E)-2-butenedioate (1:1) salt]	7.75	6.25	6.45
Clc1ccc(C2CN3CCN=C3c3ccccc32)cc1 (single isomer, unassigned; (-)) [Example 3, (-)-6-(4-chlorophenyl)-2,3,5,6-tetrahydroimidazo[2,1-a]isoquinoline (E)-2-butenedioate (1:1) salt]	8.1	7.3	7.15
Fc1ccc(C2CN3CCN=C3c3ccccc32)cc1 (single isomer, unassigned; (-)) [Example 6, (-)-6-(4-fluorophenyl)-2,3,5,6-tetrahydroimidazo[2,1-a]isoquinoline (E)-2-butenedioate (1:1) salt]	7.5	7.9	6.6
